The values below come from US20150073055A1, “USE OF MODAFINIL IN THE TREATMENT OF COCAINE ADDICTS” (DEBREGEAS ET ASSOCIES PHARMA, priority 2012, published 2015).

Data set [1] is described as follows: Solubility in supercritical CO2 or another supercritical solvent. Format: physicochemical. As for the experimental part: A method for a novel formulation being the object of the present invention, uses the technology of supercritical CO2 based on the solvent power of CO2 which may be modulated at will according to the pressure and temperature conditions which are applied to it. In the supercritical state (more than 74 bars and 31° C.), CO2 has very particular properties. The obtained fluid is characterized by great diffusivity (of the order of that of gases), which gives it good diffusion capability, and a high density which provides it with significant transport and extraction capability.
A supercritical fluid has another advantage over other solvents: its solubility changes depending on whether its temperature or its pressure is varied. Thus it is possible to ensure that it is a solvent for certain substances at a given instant, and no longer for one at the following instant. This facilitates recovery of the substance which was dissolved.
The following step consists of spraying the dissolved active ingredient on an inert support, and then of studying the grain size of the obtained particles as well as the crystalline form of the same particles.
Different parameters were then modified: • changing the inert support (anhydrous lactose replaced with mannitol), • increasing the loading level up to 30% of active ingredient load, • using S modafinil, • a supercritical solvent other than CO2 . […]

For data set [2] the following is noted: cited from earlier work.
The conditions of data set [3]: crystalline white powder, cited from earlier work.
The conditions of data set [4]: estimated; absolute bioavailability was not able to be determined; cited from earlier work.

The structures appear in SMILES notation.

For the molecule `NC(=O)C[S+]([O-])C(c1ccccc1)c1ccccc1` (racemic) [Modafinil, 2-[(diphenylmethyl)sulfinyl]acetamide], the “solubility in CO2” value in data set [1] is “acceptable solubility”. In data set [2] (in humans), the elimination half-life result is given as “about 14 hours”. Moreover, the solubility in acetone entry in data set [3] (acetone) is on record as “partly soluble”. The solubility in methanol entry in data set [3] (methanol) was “partly soluble”. The solubility in water entry in data set [3] (water) is on record as “practically insoluble”. Besides, in data set [4], the bioavailability entry is recorded as “about 40%”.

With `NC(=O)C[S@@+]([O-])C(c1ccccc1)c1ccccc1` (single isomer, unassigned) [enantiomer R], in data set [2] (after administration), the “AUC (area under the curve) compared with the racemic form” value is reported as “greater AUC (area under the curve) than the racemic form” and the “variability of plasma levels compared with the racemic form” value is reported as “less variability of plasma levels”.
